Laboratory results reported in patent US11492405B2, “Reducing systemic regulatory t cell levels or activity for treatment of disease and injury of the CNS” (Yeda Research and Development Co. Ltd, priority 2014, dated 2022).

Key:
[1] = tested on: Foxp3+ Tregs; assay: Conditional ablation of Treg by DTx, flow cytometry of blood and spleen; format: in vivo, mouse
Description: (§1) Mice were transcardially perfused with PBS, and tissues were treated as previously described (Baruch et al, 2013). Brains were dissected and the different brain regions were removed under a dissecting microscope (Stemi DV4; Zeiss) in PBS, and tissues were dissociated using the gentleMACS™ dissociator (Miltenyi Biotec). Choroid plexus tissues were isolated from the lateral, third and fourth ventricles of the brain, incubated at 37° C. for 45 min in PBS (with Ca^2+/Mg^2+) containing 400 U/ml collagenase type IV (Worthington Biochemical Corporation), and then manually homogenized by pipetting. Spleens were mashed with the plunger of a syringe and treated with ACK (ammonium chloride potassium) lysing buffer to remove erythrocytes. In all cases, samples were stained according to the manufacturers' protocols. All samples were filtered through a 70 μm nylon mesh, and blocked with anti-Fc CD16/32 (1:100; BD Biosciences). For intracellular staining of IFN-γ, the cells were incubated with […] (10 ng/ml; Sigma-Aldrich) and ionomycin (250 ng/ml; Sigma-Aldrich) for 6 h, and Brefeldin-A (10 μg/ml; Sigma-Aldrich) was added for the last 4 h. Intracellular labeling of cytokines was done with BD Cytofix/Cytoperm™ Plus fixation/permeabilization kit (cat. no. 555028). […] Cells were analyzed on an LSRII cytometer (BD Biosciences) using FlowJo software. […]

[2] = tested on: 5XFAD AD-Tg mice; assay: Flow cytometry of CP IFN-γ-expressing immune cells in 5XFAD AD-Tg mice; format: in vivo, mouse; conditions: weekly-GA, end of 1st week (two GA injections)
Description: as §1

[3] = tested on: APP/PS1 mouse model of AD; conditions: weekly administration regimen; cited from earlier work
[4] = tested on: 5XFAD AD-Tg mice; assay: Morris water maze (MWM) in 5XFAD AD-Tg mice; format: in vivo, mouse; conditions: weekly-GA vs vehicle (PBS), AD-Tg mice at 6 m
Description: Mice were given three trials per day, for 4 consecutive days, to learn to find a hidden platform located 1.5 cm below the water surface in a pool (1.1 m in diameter). The water temperature was kept between 21-22° C. Water was made opaque with milk powder. Within the testing room, only distal visual shape and object cues were available to the mice to aid in location of the submerged platform. The escape latency, i.e., the time required to find and climb onto the platform, was recorded for up to 60 s. Each mouse was allowed to remain on the platform for 15 s and was then removed from the maze to its home cage. […] The inter-trial interval for each mouse was 10 min. On day 5, the platform was removed, and mice were given a single trial lasting 60 s without available escape. On days 6 and 7, the platform was placed in the quadrant opposite the original training quadrant, and the mouse was retrained for three sessions each day. Data were recorded using the EthoVision V7.1 automated tracking system (Noldus Information Technology). Statistical analysis was performed using analysis of variance (ANOVA) and the Bonferroni post-hoc test. All MWM testing was performed between 10 a.m. and 5 p.m. during the lights-off phase.

[5] = tested on: 5XFAD AD-Tg mice; assay: Flow cytometry of splenocytes in 5XFAD AD-Tg mice; format: in vivo, mouse; conditions: weekly-GA, end of 1st week (two GA injections)
Description: as §1

[6] = tested on: 5XFAD AD-Tg mice; assay: Radial arm water maze (RAWM) in 5XFAD AD-Tg mice; format: in vivo, mouse; conditions: weekly-GA over 4 weeks
Description: The radial-arm water maze (RAWM) was used to test spatial learning and memory, as was previously described in detail (Alamed et al, 2006). Briefly, six stainless steel inserts were placed in the tank, forming six swim arms radiating from an open central area. The escape platform was located at the end of one arm (the goal arm), 1.5 cm below the water surface, in a pool 1.1 m in diameter. The water temperature was kept between 21-22° C. Water was made opaque with milk powder. Within the testing room, only distal visual shape and object cues were available to the mice to aid in location of the submerged platform. The goal arm location remained constant for a given mouse. On day 1, mice were trained for 15 trials (spaced over 3 h), with trials alternating between a visible and hidden platform, and the last 4 trails with hidden platform only. On day 2, mice were trained for 15 trials with the hidden platform. Entry into an incorrect arm, or failure to select an arm within 15 sec, was scored as an error. Spatial learning and memory were measured by counting the number of arm entry errors or the escape latency of the mice on each trial. Training data were analyzed as the mean errors or escape latency, for training blocks of three consecutive trials.

Row | Substance | depletion of GFP-expressing FoxP3+CD4+ Treg cells ([1]; blood and spleen, Foxp3.LuciDTR mice, DTx 8 ng/g i.p. daily for 4 days) [%] | depletion of Foxp3+ cells ([1]; splenocytes of AD-Tg/Foxp3-DTR+/− mice, 1 day after last of 4 daily i.p. DTx injections) [%] | IFN-γ-producing cells at the CP [2] | effect in the APP/PS1 mouse model of AD [3] | spatial learning/memory performance in acquisition, probe and reversal phases of the MWM [4] | splenocyte Foxp3+ Treg levels [5] | time the improved cognitive performance lasted after the treatment ([6]; 5XFAD AD-Tg mice) | cognitive performance (MWM, RAWM) ([6]; MWM 1 week, RAWM 1 and 2 months after last injection)
1 | Diphtheria toxin [DTx] | > 99 | ~99 | – | – | – | – | – | –
2 | Glatiramer acetate [GA] | – | – | increase | therapeutic effect | better spatial learning/memory performance | reduced | up to 2 months | improved cognitive performance
